Where a SMILES comes first, the peptide text is derived from it. [ ]: non-standard residue; d: D form. Dopa = N[C@@H](Cc1ccc(O)c(O)c1)C(=O)O; Cha = N[C@@H](CC1CCCCC1)C(=O)O
Columns and labels:
Format in all cases: physicochemical
[1] = Raman spectroscopy of secondary structure of the peptides; settings: 1×PBS, 5 mg/mL, integrated area under Raman peak
Method: In one embodiment, the secondary structure of the IIZDoK peptide contains a larger amount of α-helix structure than DoIIZK and IIZKDo peptides that preferentially contain β-turn, as can be appreciated in the Raman spectroscopy signatures of the three peptides.
Raman spectroscopy measurements were performed on DoIIZK, IIZDoK and IIZKDo at 5 mg/mL concentration in 1×PBS buffer or on dry powder samples after deposition on CaF2 slide. Witec Alpha 300 RA confocal Raman spectrometer equipped with Andor CCD camera (DU970N thermoelectrically cooled at −75° C.) was used to perform the Raman measurements in backscattered configuration. The samples were excited through a 50× objective (Zeiss® LD EC Epiplan-Neofluar) with linearly polarized 532 nm wavelength excitation laser. For the analysis, the spectra were cosmic rays removed, baseline subtracted with a polynomial of 5th order, and averaged after normalization to the 1450 cm^−1 peak intensity. Several Voigt functions were fitted setting the peaks at 1653±3, 1663±3 and 1680±3 cm^−1, corresponding to α-helix, β-turn and unordered β-turn respectively, with a FWHM set to a max value of 25 cm^−1. An additional peak at about 1635 cm^−1 was introduced into the fitting to account for contributions from water, lysine and isoleucine Raman shifts.^11

[2] = AFM force spectroscopy adhesion measurement in liquid; settings: for reduction of adhesion force by addition of NaCl: NaCl versus MilliQ water
Method: In one embodiment, the peptides were dissolved in the proper solution at a concentration of 10 mg/mL. The peptide solutions were spotted on a freshly cleaved mica sheet and the measurement was performed in liquid.
In one embodiment, the adhesion properties of the Dopa peptides are influenced by the construct lysine-Dopa and by the position of the catechol moiety in the peptide sequence, as indicated by the AFM force spectroscopy results in liquid. In a typical force spectroscopy curve the probe is several times approached to the surface and retracted and for every cycle of retraction the maximum force of adhesion is recorded. The incorporation of a catechol moiety near a lysine would enhance adhesion to negatively charged surfaces. FIG. 28 illustrates the effect of lysine on adhesion to negatively charged surfaces. Therefore, probes and substrates that were manifesting negative charges on their surfaces, such as the silicon probe and the freshly cleaved mica substrate, are used in the AFM spectroscopy. The setup of probe and substrate is illustrated in FIG. 29.
The peptides dissolved in the proper solution at 13 mM concentration each, were spotted on a freshly cleaved mica sheet and the measurement was performed in liquid. Several force curves were recorded for different buffers. […] In FIG. 30, the inset image represents the maximum extension of each peptide dissolved in water, when manually pulled between two glass slides. Also in FIG. 30, the approach part of the curve contains the important information defined as “jump to contact”, while the retract part of the F-D curve contains the adhesion force value. […] Two controls were also introduced: namely the original peptide IIZK, and an alternative peptide IIFK. To better understand the influence of Dopa on the adhesion properties of the peptide, the original short peptide IIZK would make a perfect negative control. We also introduced as a control the IIFK peptide in order to understand the effect of IIZK itself on adhesion. In FIG. 32, statistical significance expressed as p<0.01.
AFM topography measurements were performed on a Dimension Icon SPM (Bruker®). The samples were prepared as follows: peptides were dissolved at 13 mM concentration in MilliQ® water; after 30 minutes, 20 μl of these solutions were dropped on freshly cleaved mica sheets and immediately dried with an N2 stream. Measurements were immediately performed in tapping mode in air by the use of an AFM probe AC_240TS_R3 (Olympus®) with nominal free oscillation at roughly 70 kHz and a nominal spring constant of 2 N/m. The probe was calibrated by contact-free method.^54 Free oscillation amplitude was set at 200 mV with a 5% damping during tapping mode measurement. AFM adhesion measurements were performed on a JPK Nanowizard™ III mounted on Olympus® IX-81 inverted optical microscope. A mica sheet was glued one day before the experiment with double component epoxy glue to a glass slide and enclosed in a plastic o-ring provided by the JPK company for liquid measurements. Each peptide was dissolved in MilliQ® water at a concentration of 13 mM and mixed gently. Starting with the measurement in MilliQ® water, 50 μL of the solution were dropped on the freshly cleaved mica sheet within 5 minutes from the preparation of the solution and let equilibrate for 10 minutes. After, the excess solution was removed by pipetting and discarded. Then 1 mL of MilliQ® water was added gently from the side and after 5 minutes, the sample was rinsed 3 times by additional 1 mL MilliQ® water. Finally, the sample was measured by AFM force spectroscopy (Quantitative imaging mode) with additional 1 mL MilliQ® water. The MilliQ® water was exchanged after the measurement alternatively with a water solution containing 137 mM NaCl or 10 mM Phosphate ions (a combination of Na2HPO4·7H2O and NaH2PO4·H2O to reach pH 7.4). After performing the force spectroscopy map in these two different solutions, eventually, the liquid was exchanged with 1×PBS pH 7.4. […]

[3] = Peptide gelation study by vial inversion test (CGC and gelation time); settings: 1×PBS; for gelation time: vial inversion test
Method: The critical gelation concentration (CGC) and gelation time of hydrogels formed by the catechol peptides in 1×PBS determined by vial inversion test are summarized below:
The peptide powder was dissolved in 0.90 mL of MilliQ® water and vortexed until fully dissolved. Then, 0.10 mL of 10×PBS buffer were added to the peptide solution to reach a final concentration of 1×PBS. Gelation of the solution in the vial was observed by vial inversion method. The time and critical gelation concentration (CGC) at which each peptide formed a hydrogel were recorded.

Structure (SMILES)	Disordered structure Area % [1]	α-helix Area % [1]	β-turn Area % [1]	Force of adhesion (Geometric Mean) ([2]; 10 mM PO4, peptide 13 mM) [PN]	Force of adhesion (Geometric Mean) ([2]; 137 mM NaCl, peptide 13 mM) [PN]	Force of adhesion (Geometric Mean) ([2]; 1×PBS, peptide 13 mM) [PN]	Force of adhesion (Geometric Mean) ([2]; MilliQ water, peptide 13 mM) [PN]	reduction of adhesion force by addition of NaCl [2]	critical gelation concentration (CGC) [3] [mg/mL]	gelation time ([3]; peptide 1 mg/mL)	gelation time ([3]; peptide 2 mg/mL)	gelation time ([3]; peptide 2 mg/mL, listed as DopaIIZK) [min]	gelation time ([3]; peptide 3 mg/mL)	gelation time ([3]; peptide 4 mg/mL) [min]	gelation time ([3]; peptide 5 mg/mL) [min]	gelation time ([3]; peptide 4 mg/mL, listed as IIZDopaK) [min]	gelation time ([3]; peptide 3 mg/mL, listed as IIZKDopa) [min]
CC[C@H](C)[C@H](NC(=O)[C@H](Cc1ccc(O)c(O)c1)NC(C)=O)C(=O)N[C@H](C(=O)N[C@@H](CC1CCCCC1)C(=O)N[C@@H](CCCCN)C(N)=O)[C@@H](C)CC [DoIIZK, Ac-Dopa-Ile-Ile-Cha-Lys-NH2] (Ac-[Dopa]II[Cha]K-NH2)	1687; 22%	1650; 13%	1665; 65%	34.81	64.64	13.36	112.7	about 50%	2	Not gelating	45 min	>45	>30 min	>20	>10		
CC[C@H](C)[C@H](NC(C)=O)C(=O)N[C@H](C(=O)N[C@@H](CC1CCCCC1)C(=O)N[C@@H](Cc1ccc(O)c(O)c1)C(=O)N[C@@H](CCCCN)C(N)=O)[C@@H](C)CC [IIZDoK, Ac-Ile-Ile-Cha-Dopa-Lys-NH2] (Ac-II[Cha][Dopa]K-NH2)	1690; 16%	1656; 40%	1666; 44%	22.47	44.01	23.33	72	about 50%	4	Not gelating	Not gelating		Not gelating	80	>75	>80	
CC[C@H](C)[C@H](NC(C)=O)C(=O)N[C@H](C(=O)N[C@@H](CC1CCCCC1)C(=O)N[C@@H](CCCCN)C(=O)N[C@@H](Cc1ccc(O)c(O)c1)C(N)=O)[C@@H](C)CC [IIZKDo, Ac-Ile-Ile-Cha-Lys-Dopa-NH2] (Ac-II[Cha]K[Dopa]-NH2)	1690; 18%	1658; 18%	1666; 64%	13.89	76.89	29.5645	73.31	did not significantly impact	3	Not gelating	Not gelating		30 min	>21	>16		>30
